Source: patent publication US20260347372A1, “SMALL MOLECULE INHIBITORS OF KRAS G12D MUTANT” (MERCK SHARP & DOHME LLC, priority 2023, published 2026)

How the values were obtained:
KRAS G12D = KRAS G12D (Homo sapiens, UniProt P01116, G12D); assay: SOS-catalyzed nucleotide exchange assay, KRAS G12D (Procedure A); assay type: biochemical; settings: guanine nucleotide exchange (GNE)
Description: (§1) Procedure for SOS-Catalyzed Nucleotide Exchange Assay for KRAS-WT, G12C/D/V, G13D, HRAS, and NRAS (Procedure A)
(§2) Recombinant KRAS-G12C protein used in this assay has an additional triple mutation (C51S/C80L/C118S). Whereas KRAS-WT, G12D/V, G13D, HRAS and NRAS are in context of their WT protein sequence background. Specifically, the SOS-catalyzed nucleotide exchange assay utilizes a preformed TR-FRET complex containing a specific biotinylated RAS protein (KRAS-WT, G12C/V/D, G13D, HRAS, NRAS; described above) with Bodipy-GDP, and Terbium-streptavidin. Compounds are preincubated with this complex for 60 minutes. Subsequently, recombinant human SOS protein and unlabeled GTP are added to initiate the exchange reaction. Small molecule inhibitors stabilize the Bodipy-GDP complex whereas the untreated protein rapidly exchanges Bodipy-GDP for unlabeled GTP resulting in reduced TR-FRET signal.
(§3) To assemble the preformed TR-FRET complexes, each biotinylated RAS protein is diluted to 2 μM in an EDTA Buffer (20 mM HEPES pH 7.5, 50 mM sodium chloride, 10 mM EDTA, and 0.01% Tween) and incubated at room temperature for one hour. This mixture is then further diluted to 90 nM in an Assay Buffer (20 mM HEPES pH 7.5, 150 mM sodium chloride, 10 mM magnesium chloride, and 0.005% Tween) containing 15 nM of Terbium-Streptavidin (Invitrogen, catalog #PV3577) and 900 nM of Bodipy-GDP (Invitrogen, catalog #G22360) and incubated at room temperature for six hours. It should be noted that this preformed TR-FRET complex for each of the RAS protein were made ahead of time, aliquoted and stored at −80° C. until the day of the experiment.
(§4) Each test compound (10 mM stock in DMSO) is diluted in DMSO to make a final-10-point, 3-fold dilution and is acoustically dispensed into a 384-well assay plate (Corning, catalog #3820) using an Echo 550 (Labcyte). Each well of the assay plate receives 3 μL of a specific 3×RAS preformed TR-FRET complex and 3 μL of Assay Buffer and is incubated at room temperature for 60 minutes (preincubation time). Each well then receives 3 μL of 3× recombinant human SOS protein and GTP (Sigma, G8877) in Assay Buffer and is incubated at room temperature for 30 minutes (G13D), 60 minutes (KRAS WT/G12C/D, H/NRAS) or 90 minutes for G12V. The final reaction in each well of 9 μL consists of 3 mM GTP, specific Ras and SOS proteins in the following concentrations: KRAS-G12C/SOS=3 nM/40 nM, KRAS-WT and G12D/SOS=1 nM/40 nM, KRAS-G12V/SOS=1.25 nM/160 nM, KRAS-G13D/SOS=1.25 nM/0 nM, HRAS and NRAS=1.25 nM/40 nM.
(§5) The time-resolved fluorescence resonance energy transfer (TR-FRET) signal is measured on an Envision (PerkinElmer) plate reader: Excitation filter=340 nm; emission1=495 nm; emission2=520 nm; dichroic mirror=D400/D505; delay time=[…]. The signal of each well is determined as the ratio of the emission at 520 nm to that at 495 nm. Percent effect of each well is determined after normalization to control wells containing DMSO (no effect) or a saturating concentration of inhibitor (max effect). The apparent effect as a function of compound concentration is fit to a four-parameter logistic equation.
(§6) For Example No. 14, nucleotide exchange assays for KRAS G12D, WT, G12C, and G12V were performed according to Procedure B. All the other compounds were tested according to Procedure A.

AsPC-1 cells = target: T1, AsPC-1 cells (Homo sapiens, UniProt P01116, G12D); assay: Cellular phospho-ERK assay, AsPC-1 cells (KRAS G12D); assay type: cell-based; settings: 2 hours, read-out: AsPC1 pERK IC50
T1 construct: p-ERK/total ERK AlphaSureFire read-out
T1 sequence (P01116 1-188 isoform P01116-2 G12D): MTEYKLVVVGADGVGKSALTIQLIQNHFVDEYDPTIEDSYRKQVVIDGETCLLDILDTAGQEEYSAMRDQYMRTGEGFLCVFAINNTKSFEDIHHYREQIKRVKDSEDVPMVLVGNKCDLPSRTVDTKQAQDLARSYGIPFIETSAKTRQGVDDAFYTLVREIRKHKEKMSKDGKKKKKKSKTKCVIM
Procedure: Procedure for Cellular Phospho-ERK Assay in KRAS Wild Type and Mutant (G12D, G12V) Cell Lines
PANC08.13 cells (ATCC® CRL-2551™), containing homozygous KRAS-G12D activating mutation, were cultured in growth medium made of RPMI1640-GlutaMAX™-I (ThermoFisher Scientific 61870) containing 15% heat inactivated fetal bovine serum (ThermoFisher Scientific 10091148)). AsPC-1 cells (ATCC® CRL-1682™), containing homozygous KRAS-G12D activating mutation, were cultured in T150 flask in growth medium (RPMI medium 1640-GlutaMAX™-I (ThermoFisher Scientific 61870) containing 10% fetal bovine serum (ThermoFisher Scientific 10091148)).
Cells for the assay were harvested in growth medium after TrypLE (ThermoFisher scientific 12604021) digestion and were seeded in a 384-well collagen coated cell culture plate (Corning 356702) at a density of 10,000-15,000 cells/20 μL/well, and incubated at 37° C., 5% CO2 overnight. The compound (with 10 mM stock concentration) dose-response titrations were prepared [30 μM final ERK detection assay concentration and 1:3 dilutions, 10-point dose response] and appropriate amounts (270 nL) of test compounds were dispensed in a 384-well intermediate plate using an Echo 550 liquid handler. 30 μL/well of RPMI medium 1640-GlutaMAX™-I was added to the intermediate plate and the contents of the intermediate plate (10 μL/well) were then transferred to the 384-well collagen coated cell culture plate, which was incubated at 37° C., 5% CO2 for 2 hours. After removal of medium from the collagen coated cell culture plate, cells were lysed in lysis buffer from Alpha SureFire® Ultra™ Multiplex p-ERK and total ERK assay kit (PerkinElmer MPSU-PTERK) containing Halt™ Protease and Phosphatase inhibitor cocktail (ThermoFisher Scientific 78446) at room temperature with constant shaking at 300 rpm for 30 minutes. The cell lysates were then transferred to an OptiPlate-384 plate (PerkinElmer 6005620), and the phosphorylation of ERK (p-ERK) and total ERK levels were detected by Alpha SureFire® Ultra™ Multiplex p-EEK kit and total ERK assay kit (PerkinElmer MPSU-PTERK) following the manufacturer's protocol. Assay plates were read on a EnVision Multimode Plate Reader (PerkinElmer), and the ratio of p-ERK vs. total ERK in each well was used as the final readout. Dose response curves were analyzed using a 4-parameter logistic model to calculate IC50 values using Spotfire software.

KRAS G12V = KRAS G12V (Homo sapiens, UniProt P01116, G12V); assay: SOS-catalyzed nucleotide exchange assay, KRAS G12V (Procedure A); assay type: biochemical; settings: GNE
Chain of KRAS G12V (P01116 with tags, fused parts or gaps isoform P01116-2 G12V): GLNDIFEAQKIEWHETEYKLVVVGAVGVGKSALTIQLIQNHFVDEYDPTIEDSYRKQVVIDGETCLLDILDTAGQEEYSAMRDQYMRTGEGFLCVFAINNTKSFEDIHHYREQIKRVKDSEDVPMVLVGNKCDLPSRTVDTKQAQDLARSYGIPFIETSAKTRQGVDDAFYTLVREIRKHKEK
Description: as §1, §2, §3, §4, §5, §6

KRAS WT = KRAS WT (Homo sapiens, UniProt P01116); assay: SOS-catalyzed nucleotide exchange assay, KRAS WT (Procedure A); assay type: biochemical; settings: GNE
Chain of KRAS WT (P01116 with tags, fused parts or gaps isoform P01116-2): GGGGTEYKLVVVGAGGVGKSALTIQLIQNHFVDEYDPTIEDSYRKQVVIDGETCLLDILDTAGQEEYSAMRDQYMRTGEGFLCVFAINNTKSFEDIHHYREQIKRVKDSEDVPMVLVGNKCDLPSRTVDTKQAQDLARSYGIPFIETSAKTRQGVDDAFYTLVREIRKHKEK
Description: as §1, §2, §3, §4, §5, §6

Chain of KRAS G12D (P01116 with tags, fused parts or gaps isoform P01116-2 G12D): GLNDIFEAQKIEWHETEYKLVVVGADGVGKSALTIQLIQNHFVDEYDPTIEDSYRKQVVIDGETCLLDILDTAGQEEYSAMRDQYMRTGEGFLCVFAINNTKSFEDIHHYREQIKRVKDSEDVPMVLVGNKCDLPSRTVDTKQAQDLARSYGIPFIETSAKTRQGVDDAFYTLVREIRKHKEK

SMILES | IC50 (KRAS G12D) | IC50 (AsPC-1 cells) | IC50 (KRAS G12V) | IC50 (KRAS WT)
COC1(COc2nc(N3C[C@H]4CC[C@@H](C3)N4)c3c(n2)sc2c(-c4c(C(F)(F)F)c(C)cc5[nH]ncc45)nccc23)CC1 [Ex-26, 4-((1R,5S)-3,8-diazabicyclo[3.2.1]octan-3-yl)-2-((1-methoxycyclopropyl)methoxy)-8-(6-methyl-5-(trifluoromethyl)-1H-indazol-4-yl)pyrido[4′,3′:4,5]thieno[2,3-d]pyrimidine] | 3.2 µM | > 30 µM | > 11.1 µM | > 11.1 µM
Cc1cc2[nH]ncc2c(-c2nccc3c2sc2nc(OCC4CS(=O)(=O)C4)nc(N4C[C@H]5CC[C@@H](C4)N5)c23)c1C(F)(F)F [Ex-27, 3-(((4-((1R,5S)-3,8-diazabicyclo[3.2.1]octan-3-yl)-8-(6-methy1-5-(trifluoromethyl)-1H-indazol-4-yl)pyrido[4′,3′:4,5]thieno[2,3-d]pyrimidin-2-yl)oxy)methyl)thietane 1,1-dioxide] | 3.59 µM | 5.73 µM | > 11.1 µM | > 11.1 µM
Cc1cc2[nH]ncc2c(-c2nccc3c2sc2nc(OC[C@H]4C[C@H](S(C)(=O)=O)C4)nc(N4C[C@H]5CC[C@@H](C4)N5)c23)c1C(F)(F)F [Ex-29, 4-((1R,5S)-3,8-diazabicyclo[3.2.1]octan-3-yl)-8-(6-methyl-5-(trifluoromethyl)-1H-indazol-4-yl)-2-(((1r,3R)-3-(methylsulfonyl)cyclobutyl)meth-oxy)pyrido[4′,3′:4,5] thieno[2,3-d]pyrimidine] | 2.48 µM | > 30 µM | > 11.1 µM | > 11.1 µM
Cc1cc2[nH]ncc2c(-c2nccc3c2sc2nc(OCC4CCS4(=O)=O)nc(N4C[C@H]5CC[C@@H](C4)N5)c23)c1C(F)(F)F (stereo partly drawn) [Ex-31, 2-(((4-((1R,5S)-3,8-diazabicyclo[3.2.1]octan-3-yl)-8-(6-methyl-5-(trifluoromethyl)-1H-indazol-4-yl)pyrido[4′,3′:4,5]thieno[2,3-d]pyrimidin-2-yl)oxy)methyl)thietane 1,1-dioxide] | 7.79 µM | > 30 µM | > 11.1 µM | > 11.1 µM
Cc1cc2[nH]ncc2c(-c2nccc3c2sc2nc(OCCN4CCOC4=O)nc(N4C[C@H]5CC[C@@H](C4)N5)c23)c1C(F)(F)F [Ex-40, 3-(2-((4-((1R,5S)-3,8-diazabicyclo[3.2.1]octan-3-yl)-8-(6-methyl-5-(trifluoromethyl)-1H-indazol-4-yl)pyrido[4′,3′:4,5]thieno[2,3-d]pyrimidin-2-yl)oxy)ethyl)oxazolidin-2-one] | 5.88 µM | > 30 µM | > 11.1 µM | > 11.1 µM
C#Cc1c(F)ccc2cc3[nH]ncc3c(-c3nccc4c3sc3nc(OC[C@@]56CCCN5C[C@H](F)C6)nc(N5C[C@H]6CC[C@@H](C5)N6)c34)c12 [Ex-56] | 0.00445 µM | 0.0318 µM | 0.283 µM | 0.225 µM
Cc1cc2[nH]ncc2c(-c2nccc3c2sc2nc(OC[C@@]45CCCN4C[C@H](F)C5)nc(N4C[C@@H]5CC[C@H]4CN5)c23)c1C(F)(F)F [Ex-75, 4-((1S,4S)-2,5-diazabicyclo[2.2.2]octan-2-yl)-2-(((2R,7aS)-2-fluorotetrahydro-1H-pyrrolizin-7a(5H)-yl)methoxy)-8-(6-methyl-5-(trifluoromethyl)-1H-indazol-4-yl)pyrido[4′,3′:4,5]thieno[2,3-d]pyrimidine] | 0.0381 µM | 0.629 µM | > 11.1 µM | 3.68 µM

More lines, now with the values ahead:

IC50 (KRAS G12D) | IC50 (AsPC-1 cells) | IC50 (KRAS G12V) | IC50 (KRAS WT) | SMILES
3.34 µM | > 30 µM | > 11.1 µM | > 11.1 µM | Cc1cc2[nH]ncc2c(-c2nccc3c2sc2nc(OCC45COC(CF)(C4)C5)nc(N4C[C@H]5CC[C@@H](C4)N5)c23)c1C(F)(F)F [Ex-28, 4-((1R,5S)-3,8-diazabicyclo[3.2.1]octan-3-yl)-2-((1-(fluoromethyl)-2-oxabicyclo[2.1.1]hexan-4-yl)methoxy)-8-(6-methy1-5-(trifluoromethyl)-1H-indazol-4-yl)pyrido[4′,3′:4,5]thieno[2,3-d]pyrimidine]
2.6 µM | > 30 µM | > 11.1 µM | > 11.1 µM | Cc1cc2[nH]ncc2c(-c2nccc3c2sc2nc(OCC4CCS(=O)(=O)C4)nc(N4C[C@H]5CC[C@@H](C4)N5)c23)c1C(F)(F)F (stereo partly drawn) [Ex-30, 3-(((4-((1R,5S)-3,8-diazabicyclo[3.2.1]octan-3-yl)-8-(6-methyl-5-(trifluoromethyl)-1H-indazol-4-yl)pyrido[4′,3′:4,5]thieno[2,3-d]pyrimidin-2-yl)oxy)methyl)tetrahydrothio-phene 1,1-dioxide]
0.0236 µM | 0.299 µM | 2.09 µM | 2.89 µM | Fc1ccc2cc3[nH]ncc3c(-c3nccc4c3sc3nc(OC[C@@]56CCCN5C[C@H](F)C6)nc(N5C[C@H]6CC[C@@H](C5)N6)c34)c2c1 [Ex-57, 4-((1R,5S)-3,8-diazabicyclo[3.2.1]octan-3-yl)-8-(6-fluoro-1H-benzo[f]indazol-4-yl)-2-(((2R,7aS)-2-fluorotetrahydro-1H-pyrrolizin-7a(5H)-yl)methoxy)pyri-do[4′,3′:4,5] thieno[2,3-d]pyrimidine]
0.0093 µM | 0.447 µM | 2.56 µM | 1.83 µM | F[C@H]1CN2CCC[C@@]2(COc2nc(N3C[C@H]4CC[C@@H](C3)N4)c3c(n2)sc2c(-c4c5cn[nH]c5cc5cccc(Cl)c45)nccc23)C1 [Ex-58, 4-((1R,5S)-3,8-diazabicyclo[3.2.1]octan-3-yl)-8-(5-chloro-1H-benzo[/]indazol-4-yl)-2-(((2R,7aS)-2-fluorotetrahydro-1H-pyrrolizin-7a(5H)-yl)methoxy)pyrido[4′,3′:4,5]thieno[2,3-d]pyrimidine]
